From patent publication US10570179B2, “Substituted urea depsipeptide analogs as activators of the CLPP endopeptidase” (priority 2016, dated 2020)
Read-outs that look alike come from different tables or passages of the source. Numbered stars: 1 amine (or outer) side, 2 acyl side, 3 side chain; on linkers, the order of the positions; unused ones are H or OH. Bridge positions count the residues as written; N and C are the ends. Square brackets hold non-standard residues; d marks the D form. Peptide text beside a SMILES is read from it. * marks the point of attachment. Piperazine(2S-CO,4-Me) = CN1CCN[C@H](C(=O)O)C1; Morpholine(3S-CO) = O=C(O)[C@@H]1COCCN1; Phe(3-Me) = Cc1cccc(C[C@H](N)C(=O)O)c1; NH(4-Cl-2-F-phenyl) = Fc1cc(Cl)ccc1N*; Pro(4R-Me) = C[C@H]1CN[C@H](C(=O)O)C1; Hyp = O=C(O)[C@@H]1C[C@@H](O)CN1; NH(4-Et-phenyl) = CCc1ccc(N*)cc1; NH(4-Me-phenyl) = Cc1ccc(N*)cc1; aThr = C[C@H](O)[C@H](N)C(=O)O; CO = O=C([*:1])[*:2]

What was measured:
[1] = Plasma protein binding, rapid equilibrium dialysis; assay type: in vitro ADME, mouse
Experimental: This assay determines plasma protein binding of a drug/compound and free drug concentration in plasma using rapid equilibrium dialysis, which allow the aqueous component of plasma containing the free drug/compound through a dialysis membrane (MWCO˜8,000).
Solutions were prepared at 10 mM in DMSO. Dulbecco's phosphate buffered saline (DPBS; pH 7.4) was obtained from Invitrogen (Carlsbad, Calif.). Single-Use RED (rapid equilibrium dialysis) device was obtained from Thermo scientific (Rockford, Ill.). Human plasma was obtained from Innovative Research INC (Novi, Michigan, Ill).
Sample preparation for plasma protein binding was modified from Waters' method. (Waters et al. (2008) J. Pharm. Sci. 97(10): 4586-95). The Teflon base plate with the RED inserts (MWCO 8 K) were allowed to use without any pre-condition the membrane inserts. Human plasma was thawed and centrifuged at 1000 rpm for 2 min to remove any particulates. Each compound was prepared at 10 μM in human plasma. This was done by adding 1 μL, of drug solution (10 mM in DMSO) to 1000 μL, of human plasma (0.1% DMSO). Spiked plasma solutions (300 μL) were placed into the sample chamber (indicated by the red ring) and 500 μL, of DPBS into the adjacent chamber. The plate was sealed and incubated at 37° C. on an orbital shaker (100 rpm) for 4 hours. After incubation, the seal was removed from the RED plate and the volume of the insert confirmed—little to no volume change occurred. Aliquots (50 μL) were removed from each side of the insert and dispensed into a 96-well deep plate. An equal volume of blank plasma or DPBS was added to the required wells to create analytically identical sample matrices (matrix matching). To each sample 200 μL, of ACN containing 4 μg/mL warfarin IS was added. All of the plates were sealed and mixed well at 600 rpm for 10 min and were centrifuged at 4000 rpm for 20 min. The supernatants (120 μL) were transferred to analytical plates for analysis by LCMS. Conditions for Waters ACQUITY-UPLC-MS-UV system were described separately. The test compound concentrations were quantified in both buffer and plasma chambers via peak areas relative to the internal standard. The percentage of the test compound bound to plasma was calculated on following equations: % Free=(Concentration buffer chamber/concentration plasma chamber)×100% and % Bound=100%-% Free.

Plasma stability assay = assay type: in vitro ADME, human
Experimental: The plasma stability property of early drug discovery compounds can influence the in vivo efficacy of the test compounds/drugs. Human and/or mouse plasma degradation is determined using multiple time points to monitor the rate of disappearance of the parent compound during incubation.
Sample preparation for plasma stability was modified from Di et al. (2005) Int. J. Pharm. 297(1-2): 110-119. A set of incubation times of 0, 3, 24, and 48 hour were used. DMSO stock solutions of test compounds were prepared at 10 mM concentration. 1.8 μL of each test compound was each added directly to 1.8 mL of human/mouse plasma to get the final concentration of 10 μM. This compound/matrix was mixed and 70 μL was transferred to 8 time points plates (each in triplicate wells). For the Time 0 plate, 210 μL of cold acetonitrile with internal standard (4 μg/mL warfarin) was added to each well and no incubation needed. For other seven time points' plate, the plate was incubated at 37° C. for required time, followed by quenching of the reaction by adding 210 μL of cold acetonitrile with internal standard (4 μg/ml warfarin) to each well. All of the plates were sealed and mixed well at 600 rpm for 10 min and were centrifuged at 4000 rpm for 20 min. The supernatants (120 μL) were transferred to analytical plates for analysis by LCMS. Conditions for Waters ACQUITY-UPLC-MS-UV system was described separately. The plasma stability was evaluated via the half-life from least-squares fit of the multiple time points based on first-order kinetics.

Plasma pharmacokinetics = assay type: in vivo, male BALB/c mice; conditions: for Vd: read-out: Vss
[2] = male, BALB/c, mouse, in vivo, iv
[3] = male, BALB/c, mouse, in vivo, iv, 10 mg/kg, Route i.v.

Row | Structure (SMILES) | Mouse ([1]; mouse, 4 h, 10 μM, pH 7.4) [%] | Human (Plasma stability assay; human, 10 μM) [h] | AUC(0-inf) (Plasma pharmacokinetics; [2]) [ng·h/mL] | AUC(0-t) (Plasma pharmacokinetics; [2]) [ng·h/mL] | C^0 (Plasma pharmacokinetics; [2]) [ng/mL] | clearance (Plasma pharmacokinetics; [2]) [mL/min/kg] | half-life (Plasma pharmacokinetics; [2]) [h] | Vd (Plasma pharmacokinetics; [3]) [L/kg] | Mouse ([1]; plasma binding, % Bound, mouse plasma) [%] | Human (Plasma stability assay; plasma stability half-life, human plasma, 37° C.) [h] | C^0 (Plasma pharmacokinetics; Route i.v.) [ng/mL] | AUC(0-inf) (Plasma pharmacokinetics; male, BALB/c, mouse, in vivo, iv, 10 mg/kg, Route i.v., read-out: AUCinf) [ng·h/mL] | AUC(0-t) (Plasma pharmacokinetics; male, BALB/c, mouse, in vivo, iv, 10 mg/kg, Route i.v., read-out: AUClast) [ng·h/mL] | clearance (Plasma pharmacokinetics; male, BALB/c, mouse, in vivo, iv, 10 mg/kg, Route i.v., read-out: CL) [mL/min/kg] | half-life (Plasma pharmacokinetics; male, BALB/c, mouse, in vivo, iv, 10 mg/kg, Route i.v., read-out: T1/2 (converted)) [h]
1 | Cc1cccc(C[C@H](NC(=O)Nc2ccc3c(c2)OCO3)C(=O)N[C@H]2COC(=O)[C@@H]3C[C@@H](C)CN3C(=O)[C@H](C)NC(=O)[C@@H]3CCCCN3C(=O)[C@@H]3CCCN3C2=O)c1 [Compound 23, (S)-2-(3-(BENZO[D][1,3]DIOXOL-5-YL)UREIDO)-N-((2R,6S,8AS,14AS,20S,23AS)-2,6-DIMETHYL-5,8,14,19,23-PENTAOXOOCTADECAHYDRO-1H,5H,14H,19H-PYRIDO[2,1-I]DIPYRROLO[2,1-C:2′,1′-L][1]OXA[4,7,10,13]TETRAAZACYCLOHEXADECIN-20-YL)-3-(M-TOLYL)PROPANAMIDE] | 96.9 ± 0.1 | >50 | 12000 | 11700 | 25009.24 | 13.8 | 4.57 | 2.83 | – | – | – | – | – | – | –
2 | CCc1ccc(NC(=O)N[C@@H](Cc2cccc(C)c2)C(=O)N[C@@H]2C(=O)N3C[C@H](O)C[C@H]3C(=O)N3CCOC[C@H]3C(=O)N[C@@H](C)C(=O)N3C[C@H](C)C[C@H]3C(=O)O[C@H]2C)cc1 [Compound 24, (S)-2-(3-(4-ETHYLPHENYL)UREIDO)-N-((6AS,8R,12S,13S,15AS,17R,21S,23AS)-8-HYDROXY-13,17,21-TRIMETHYL-6,11,15,20,23-PENTAOXOOCTADECAHYDRO-6H,11H,15H-[1,4]OXAZINO[3,4-I]DIPYRROLO[2,1-C:2′,1′-L][1]OXA[4,7,10,13]TETRAAZACYCLOHEXADECIN-12-YL)-3-(M-TOLYL)PROPANAMIDE] ({NH(4-Et-phenyl)-CO}-[Phe(3-Me)][aThr][Hyp][Morpholine(3S-CO)]A[Pro(4R-Me)]; ester 2-C) | 98.2 ± 0.1 | 90.86 | 3870 | 3850 | 27083.47 | 43 | 0.34 | 0.51 | – | – | – | – | – | – | –
3 | Cc1ccc(NC(=O)N[C@@H](Cc2cccc(C)c2)C(=O)N[C@@H]2C(=O)N3C[C@H](O)C[C@H]3C(=O)N3CCN(C)C[C@H]3C(=O)N[C@@H](C)C(=O)N3C[C@H](C)C[C@H]3C(=O)O[C@H]2C)cc1 [Compound 30, (S)—N-((6AS,8R,12S,13S,15AS,17R,21S,23AS)-8-HYDROXY-2,13,17,21-TETRAMETHYL-6,11,15,20,23-PENTAOXOOCTADECAHYDRO-2H,6H,11H,15H-PYRAZINO[2,1-I]DIPYRROLO[2,1-C:2′,1′-L][1]OXA[4,7,10,13]TETRAAZACYCLOHEXADECIN-12-YL)-3-(M-TOLYL)-2-(3-(P-TOLYL)UREIDO)PROPANAMIDE] ({NH(4-Me-phenyl)-CO}-[Phe(3-Me)][aThr][Hyp][Piperazine(2S-CO,4-Me)]A[Pro(4R-Me)]; ester 2-C) | – | – | – | – | – | – | – | 1.74 | 92.4 ± 2.4 | >50 | 12355.62 | 2650 | 2620 | 63 | 2.08
4 | Cc1cccc(C[C@H](NC(=O)Nc2ccc(Cl)cc2F)C(=O)N[C@@H]2C(=O)N3C[C@H](O)C[C@H]3C(=O)N3CCN(C)C[C@H]3C(=O)N[C@@H](C)C(=O)N3C[C@H](C)C[C@H]3C(=O)O[C@H]2C)c1 [Compound 31, (S)-2-(3-(4-CHLORO-2-FLUOROPHENYL)UREIDO)-N-((6AS,8R,12S,13S,15AS,17R,21S,23AS)-8-HYDROXY-2,13,17,21-TETRAMETHYL-6,11,15,20,23-PENTAOXOOCTADECAHYDRO-2H,6H,11H,15H-PYRAZINO[2,1-I]DIPYRROLO[2,1-C:2′,1′-L][1]OXA[4,7,10,13]TETRAAZACYCLOHEXADECIN-12-YL)-3-(M-TOLYL)PROPANAMIDE] ({NH(4-Cl-2-F-phenyl)-CO}-[Phe(3-Me)][aThr][Hyp][Piperazine(2S-CO,4-Me)]A[Pro(4R-Me)]; ester 2-C) | 96.9 ± 6.9 | >50 | 5260 | 5250 | 30582.19 | 31.7 | 1.55 | 0.63 | – | – | – | – | – | – | –
